Data: ChEMBL document CHEMBL5055616, “Discovery of Acyl-sulfonamide Nav1.7 Inhibitors GDC-0276 and GDC-0310” (J Med Chem, 2021)
In brackets after ≈: the same amount, converted by molar mass.

Key:
[1] = Lipophilicity, logD of the compound at pH 7.4 by shake flask assay based LC-MS/MS analysis; assay type: physicochemical; settings: buffer
[2] = target: Sodium channel protein type 5 subunit alpha (Homo sapiens, UniProt Q14524); assay: Inhibition of human Nav1.5 expressed in HEK293 cells incubated for 1 hr in presence of veratridine and anthropleurin-C by sodium influx assay; assay type: cell-based
Homo sapiens = species on record: Homo sapiens; assay: Selectivity index, ratio of IC50 for human Nav1.5 expressed in HEK293 cells to IC50 for human Nav1.7 expressed in HEK293 cells; assay type: cell-based
[3] = Metabolic stability in human liver microsomes assessed as intrinsic clearance at 1 uM measured upto 60 mins in presence of NADPH by LC-MS/MS analysis; assay type: ADME, Microsome; settings: read-out: CLH
[4] = Metabolic stability in human hepatocytes assessed as intrinsic clearance at 1 uM measured upto 3 hrs by LC-MS/MS analysis; assay type: ADME, cell-based, Hepatocyte; settings: read-out: CLH
[5] = target: Sodium channel protein type 8 subunit alpha (Homo sapiens, UniProt Q9UQD0); assay: Inhibition of human Nav1.6 expressed in CHO cells by whole cell voltage clamp analysis; assay type: cell-based
[6] = Plasma protein binding in Beagle dog assessed as unbound fraction at 5 uM after 6 hrs by LC-MS/MS analysis based equilibrium dialysis method; assay type: ADME, cell-free, Canis lupus familiaris
[7] = Volume of distribution at steady state in Sprague-Dawley rat at 5 mg/kg, po or 1 mg/kg, iv measured upto 8 hrs by LC-MS/MS analysis; assay type: ADME, organism-based; settings: in vivo
Cytochrome P450 3A4 = Cytochrome P450 3A4 (Homo sapiens, UniProt P08684); assay: Inhibition of CYP3A4 (unknown origin); assay type: ADME
[8] = Volume of distribution at steady state in cynomolgus monkey at 2 mg/kg, po or 1 mg/kg, iv measured upto 24 hrs by LC-MS/MS analysis; assay type: ADME, organism-based, Macaca fascicularis; settings: in vivo
[9] = target: Sodium channel protein type 2 subunit alpha (Homo sapiens, UniProt Q99250); assay: Inhibition of full length human Nav1.2 expressed in HEK cells by whole cell voltage clamp analysis; assay type: cell-based
[10] = Volume of distribution at steady state in Beagle dog at 1 mg/kg, po or 0.5 mg/kg, iv measured upto 24 hrs by LC-MS/MS analysis; assay type: ADME, organism-based, Canis lupus familiaris; settings: in vivo
[11] = Plasma protein binding in human assessed as unbound fraction at 5 uM after 6 hrs by LC-MS/MS analysis based equilibrium dialysis method; assay type: ADME, cell-free
[12] = Oral bioavailability in Beagle dog at 1 mg/kg measured upto 24 hrs by LC-MS/MS analysis; assay type: ADME, organism-based, Canis lupus familiaris; settings: in vivo
Mus musculus = assay: Antinociceptive activity in po dosed FVB hNav1.7 transgenic mouse model of inherited erythromelalgia harboring I848T mutation assessed as reduction in number of nociceptive aconitine injected after compound administration; assay type: functional, organism-based; settings: for EC50: Mus musculus; for fEC50: route po
[13] = target: Sodium channel protein type 1 subunit alpha (Homo sapiens, UniProt P35498); assay: Inhibition of full length human Nav1.1 expressed in HEK cells by whole cell voltage clamp analysis; assay type: cell-based
[14] = Half life in Sprague-Dawley rat at 5 mg/kg, po or 1 mg/kg, iv measured upto 8 hrs by LC-MS/MS analysis; assay type: ADME, organism-based; settings: in vivo
[15] = Kinetic solubility of compound in PBS at pH 7.4; assay type: physicochemical; settings: read-out: Kinetic_solubility
[16] = Plasma protein binding in cynomolgus monkey assessed as unbound fraction at 5 uM after 6 hrs by LC-MS/MS analysis based equilibrium dialysis method; assay type: ADME, cell-free, Macaca fascicularis
[17] = Oral bioavailability in cynomolgus monkey at 2 mg/kg measured upto 24 hrs by LC-MS/MS analysis; assay type: ADME, organism-based, Macaca fascicularis; settings: in vivo
[18] = Apparent permeability across apical to basolateral side in MDCK cells by transwell assay; assay type: ADME, cell-based, Canis lupus familiaris; settings: dog
[19] = Plasma protein binding in Sprague-Dawley rat assessed as unbound fraction at 5 uM after 6 hrs by LC-MS/MS analysis based equilibrium dialysis method; assay type: ADME, cell-free
[20] = Half life in cynomolgus monkey at 2 mg/kg, po or 1 mg/kg, iv measured upto 24 hrs by LC-MS/MS analysis; assay type: ADME, organism-based, Macaca fascicularis; settings: in vivo
[21] = Half life in Beagle dog at 1 mg/kg, po or 0.5 mg/kg, iv measured upto 24 hrs by LC-MS/MS analysis; assay type: ADME, organism-based, Canis lupus familiaris; settings: in vivo
[22] = Oral bioavailability in Sprague-Dawley rat at 5 mg/kg measured upto 8 hrs by LC-MS/MS analysis; assay type: ADME, organism-based; settings: in vivo
[23] = target: Sodium channel protein type 4 subunit alpha (Homo sapiens, UniProt P35499); assay: Inhibition of full length human Nav1.4 expressed in HEK cells by whole cell voltage clamp analysis; assay type: cell-based

Chain of Sodium channel protein type 5 subunit alpha (Q14524 whole entry): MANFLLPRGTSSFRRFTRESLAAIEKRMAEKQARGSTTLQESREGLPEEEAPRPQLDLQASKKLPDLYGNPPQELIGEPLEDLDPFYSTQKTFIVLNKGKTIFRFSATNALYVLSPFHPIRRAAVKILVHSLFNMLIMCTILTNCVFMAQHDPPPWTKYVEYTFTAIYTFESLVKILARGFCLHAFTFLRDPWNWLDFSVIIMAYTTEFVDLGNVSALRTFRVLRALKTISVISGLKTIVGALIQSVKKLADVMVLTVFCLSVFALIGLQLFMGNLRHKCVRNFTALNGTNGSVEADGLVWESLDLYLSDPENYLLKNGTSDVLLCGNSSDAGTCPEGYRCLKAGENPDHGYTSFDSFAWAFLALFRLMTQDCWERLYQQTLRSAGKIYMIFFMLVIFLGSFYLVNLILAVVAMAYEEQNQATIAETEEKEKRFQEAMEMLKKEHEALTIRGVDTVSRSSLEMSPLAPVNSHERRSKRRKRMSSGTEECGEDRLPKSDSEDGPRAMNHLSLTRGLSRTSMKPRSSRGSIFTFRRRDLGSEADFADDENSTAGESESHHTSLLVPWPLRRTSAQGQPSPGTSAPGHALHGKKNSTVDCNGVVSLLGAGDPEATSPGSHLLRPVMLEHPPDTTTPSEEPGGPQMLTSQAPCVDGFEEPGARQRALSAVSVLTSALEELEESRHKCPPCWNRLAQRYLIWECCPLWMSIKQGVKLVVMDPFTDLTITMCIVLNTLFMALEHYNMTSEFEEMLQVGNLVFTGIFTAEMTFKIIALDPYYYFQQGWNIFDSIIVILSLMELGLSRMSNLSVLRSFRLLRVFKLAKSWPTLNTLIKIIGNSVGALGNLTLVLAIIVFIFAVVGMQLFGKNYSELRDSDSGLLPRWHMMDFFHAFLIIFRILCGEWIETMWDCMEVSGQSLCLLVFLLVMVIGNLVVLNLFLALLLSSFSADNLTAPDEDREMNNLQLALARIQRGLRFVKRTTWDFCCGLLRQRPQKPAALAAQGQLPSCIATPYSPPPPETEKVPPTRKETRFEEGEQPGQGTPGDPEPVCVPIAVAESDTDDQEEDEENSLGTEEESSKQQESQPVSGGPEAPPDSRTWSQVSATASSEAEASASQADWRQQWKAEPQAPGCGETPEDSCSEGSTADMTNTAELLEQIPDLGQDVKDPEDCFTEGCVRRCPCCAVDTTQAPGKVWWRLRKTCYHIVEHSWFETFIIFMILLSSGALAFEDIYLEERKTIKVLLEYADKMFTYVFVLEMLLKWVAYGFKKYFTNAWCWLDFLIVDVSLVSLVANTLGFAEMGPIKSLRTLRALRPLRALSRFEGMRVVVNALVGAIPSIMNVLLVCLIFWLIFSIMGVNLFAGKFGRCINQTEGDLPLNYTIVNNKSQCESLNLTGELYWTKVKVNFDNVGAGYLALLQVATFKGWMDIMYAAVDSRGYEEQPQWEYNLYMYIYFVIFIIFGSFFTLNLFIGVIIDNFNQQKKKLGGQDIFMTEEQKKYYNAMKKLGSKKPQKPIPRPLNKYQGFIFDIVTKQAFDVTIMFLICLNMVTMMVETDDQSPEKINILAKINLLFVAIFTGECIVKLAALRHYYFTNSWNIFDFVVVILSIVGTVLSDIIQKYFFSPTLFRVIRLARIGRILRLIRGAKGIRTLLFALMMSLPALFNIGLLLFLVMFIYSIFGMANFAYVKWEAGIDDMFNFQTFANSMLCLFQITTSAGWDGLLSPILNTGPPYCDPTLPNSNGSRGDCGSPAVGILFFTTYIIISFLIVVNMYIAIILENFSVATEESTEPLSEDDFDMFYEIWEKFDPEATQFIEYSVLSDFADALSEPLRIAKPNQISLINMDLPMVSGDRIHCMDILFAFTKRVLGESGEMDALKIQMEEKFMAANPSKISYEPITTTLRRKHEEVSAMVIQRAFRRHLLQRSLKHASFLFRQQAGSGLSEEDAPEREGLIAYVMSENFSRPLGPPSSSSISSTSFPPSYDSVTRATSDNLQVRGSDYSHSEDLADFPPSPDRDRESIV
Chain of Cytochrome P450 3A4 (P08684 whole entry): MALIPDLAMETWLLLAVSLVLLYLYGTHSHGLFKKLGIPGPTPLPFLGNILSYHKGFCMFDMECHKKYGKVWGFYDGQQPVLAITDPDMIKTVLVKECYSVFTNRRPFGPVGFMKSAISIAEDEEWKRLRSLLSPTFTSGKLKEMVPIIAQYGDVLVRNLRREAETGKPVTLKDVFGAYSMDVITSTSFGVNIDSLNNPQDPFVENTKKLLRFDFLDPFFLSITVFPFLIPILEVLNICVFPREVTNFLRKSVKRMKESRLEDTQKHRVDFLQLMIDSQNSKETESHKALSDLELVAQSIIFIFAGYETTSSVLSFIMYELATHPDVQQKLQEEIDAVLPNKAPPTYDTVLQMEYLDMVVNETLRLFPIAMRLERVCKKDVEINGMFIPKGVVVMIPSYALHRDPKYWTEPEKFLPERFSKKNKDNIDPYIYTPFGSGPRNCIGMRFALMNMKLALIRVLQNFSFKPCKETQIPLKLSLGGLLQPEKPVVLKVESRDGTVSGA
Chain of Sodium channel protein type 2 subunit alpha (Q99250 whole entry): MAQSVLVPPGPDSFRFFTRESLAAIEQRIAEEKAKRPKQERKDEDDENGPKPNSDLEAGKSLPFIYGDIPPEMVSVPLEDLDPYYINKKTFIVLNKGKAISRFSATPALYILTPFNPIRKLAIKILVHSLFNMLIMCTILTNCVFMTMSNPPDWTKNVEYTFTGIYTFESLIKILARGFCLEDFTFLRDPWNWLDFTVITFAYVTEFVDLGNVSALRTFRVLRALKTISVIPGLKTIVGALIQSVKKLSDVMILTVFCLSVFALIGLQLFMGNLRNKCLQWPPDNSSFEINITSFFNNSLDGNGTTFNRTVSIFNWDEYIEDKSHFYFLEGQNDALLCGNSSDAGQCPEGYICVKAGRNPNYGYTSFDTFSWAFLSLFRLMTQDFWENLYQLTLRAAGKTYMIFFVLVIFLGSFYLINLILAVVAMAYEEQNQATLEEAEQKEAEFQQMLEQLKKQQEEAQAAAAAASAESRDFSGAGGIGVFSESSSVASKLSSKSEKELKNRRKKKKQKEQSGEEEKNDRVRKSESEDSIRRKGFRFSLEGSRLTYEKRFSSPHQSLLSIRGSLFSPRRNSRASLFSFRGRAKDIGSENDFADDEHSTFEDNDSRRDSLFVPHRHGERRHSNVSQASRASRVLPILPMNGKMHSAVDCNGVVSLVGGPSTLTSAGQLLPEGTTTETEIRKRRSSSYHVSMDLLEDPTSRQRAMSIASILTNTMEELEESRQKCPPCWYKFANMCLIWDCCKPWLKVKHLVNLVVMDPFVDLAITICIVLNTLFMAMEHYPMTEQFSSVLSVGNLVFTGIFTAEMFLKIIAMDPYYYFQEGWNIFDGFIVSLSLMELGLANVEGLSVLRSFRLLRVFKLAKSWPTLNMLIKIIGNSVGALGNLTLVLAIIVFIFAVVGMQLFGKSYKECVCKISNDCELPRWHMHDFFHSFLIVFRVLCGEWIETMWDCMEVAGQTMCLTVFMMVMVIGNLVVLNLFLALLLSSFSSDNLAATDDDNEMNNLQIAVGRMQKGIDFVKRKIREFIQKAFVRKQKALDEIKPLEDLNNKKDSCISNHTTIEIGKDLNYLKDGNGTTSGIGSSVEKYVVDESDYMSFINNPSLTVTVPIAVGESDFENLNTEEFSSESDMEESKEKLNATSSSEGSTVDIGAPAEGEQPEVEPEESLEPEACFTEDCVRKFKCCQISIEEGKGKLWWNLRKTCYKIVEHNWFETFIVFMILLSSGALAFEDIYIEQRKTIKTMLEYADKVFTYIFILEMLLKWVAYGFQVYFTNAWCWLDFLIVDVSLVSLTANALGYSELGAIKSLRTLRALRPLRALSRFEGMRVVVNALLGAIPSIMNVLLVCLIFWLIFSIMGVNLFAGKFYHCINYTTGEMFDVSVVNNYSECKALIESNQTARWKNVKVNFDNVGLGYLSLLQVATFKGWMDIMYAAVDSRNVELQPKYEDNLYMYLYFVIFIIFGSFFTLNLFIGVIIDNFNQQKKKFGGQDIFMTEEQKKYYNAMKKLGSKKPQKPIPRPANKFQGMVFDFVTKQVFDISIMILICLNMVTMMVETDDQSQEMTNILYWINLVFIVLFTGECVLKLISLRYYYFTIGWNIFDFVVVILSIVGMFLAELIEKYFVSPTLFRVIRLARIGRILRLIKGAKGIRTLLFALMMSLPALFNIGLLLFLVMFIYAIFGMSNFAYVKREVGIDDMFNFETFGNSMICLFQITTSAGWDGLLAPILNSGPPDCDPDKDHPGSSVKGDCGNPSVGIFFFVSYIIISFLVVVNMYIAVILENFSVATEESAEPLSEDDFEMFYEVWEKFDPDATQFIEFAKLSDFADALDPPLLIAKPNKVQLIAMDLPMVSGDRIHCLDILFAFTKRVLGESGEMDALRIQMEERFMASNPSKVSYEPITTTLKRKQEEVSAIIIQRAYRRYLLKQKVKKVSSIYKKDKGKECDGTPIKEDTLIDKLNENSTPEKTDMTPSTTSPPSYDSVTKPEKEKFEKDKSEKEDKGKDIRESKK

## CS(=O)(=O)NC(=O)c1cc(C2CC2)c(OCC2CCN(Cc3cc(Cl)cc(Cl)c3)CC2)cc1F
[1]
  logD: 2
[2]
  IC50: 7 µM
Homo sapiens
  Ratio IC50: 58
[3]
  CLint scaled at 1 µM: 9.7 mL/min/kg
[4]
  CLint scaled at 1 µM: 15 mL/min/kg

## O=C(NS(=O)(=O)C1CC1)c1cc(C2CC2)c(OCC23CC4CC(CC(C4)C2)C3)cc1F
[1]
  logD: 3.2
[2]
  IC50: 0.26 µM
Homo sapiens
  Ratio IC50: 19
[3]
  CLint scaled at 1 µM: 18 mL/min/kg
[4]
  CLint scaled at 1 µM: 16 mL/min/kg

## CS(=O)(=O)NC(=O)c1cc(C2CC2)c(OCC2CCN(Cc3ccccc3)CC2)cc1F
[1]
  logD: 0.3
[2]
  IC50: > 30 µM
Homo sapiens
  Ratio IC50: > 9.1
[3]
  CLint scaled at 1 µM: 4.8 mL/min/kg
[4]
  CLint scaled at 1 µM: 15 mL/min/kg

## CS(=O)(=O)NC(=O)c1cc(C2CC2)c(OCC2CCN(Cc3ccc(Cl)cc3)CC2)cc1F
[2]
  IC50: 27 µM
Homo sapiens
  Ratio IC50: 667
[3]
  CLint scaled at 1 µM: 9.9 mL/min/kg
[4]
  CLint scaled at 1 µM: 15 mL/min/kg

## C[C@H](c1cc(Cl)cc(Cl)c1)N1CCC(COc2cc(F)c(C(=O)NS(C)(=O)=O)cc2C2CC2)CC1
[1]
  logD: 2.2
[3]
  CLint scaled at 1 µM: 17 mL/min/kg
[4]
  CLint scaled at 1 µM: 16 mL/min/kg

## CS(=O)(=O)NC(=O)c1cc(C2CC2)c(OCC2CN(C(c3ccccc3)c3ccccc3)C2)cc1F
[1]
  logD: 1.8
[2]
  IC50: 1.1 µM
Homo sapiens
  Ratio IC50: 48
[3]
  CLint scaled at 1 µM: 6.7 mL/min/kg
[4]
  CLint scaled at 1 µM: 15 mL/min/kg

## C[C@@H](c1cc(Cl)cc(Cl)c1)N1CCC(COc2cc(F)c(C(=O)NS(C)(=O)=O)cc2C2CC2)CC1
[5]
  IC50: 0.198 µM
[6]
  Fu: 0.157%
[7]
  Vdss: 0.6 L/kg
Cytochrome P450 3A4
  IC50: > 10 µM
[8]
  Vdss: 0.29 L/kg
[9]
  IC50: 0.038 µM
[10]
  Vdss: 0.33 L/kg
[11]
  Fu: 0.196%
[1]
  logD: 2.3
[12]
  bioavailability: 100%
[2]
  IC50: 1.5 µM
Mus musculus
  EC50: 1.1 µM
  fEC50: 3.5 nM
[13]
  IC50: 0.202 µM
[14]
  half-life: 5 h
[15]
  solubility kinetic: 52 µM (≈ 28.3 µg/mL)
[16]
  Fu: 0.129%
[17]
  bioavailability: 82%
[18]
  Papp A→B: 11 ×10⁻⁶ cm/s
[19]
  Fu: 0.278%
[3]
  CLint scaled at 1 µM: 9.6 mL/min/kg
[20]
  half-life: 4.4 h
[21]
  half-life: 46 h
[22]
  bioavailability: 68%
[4]
  CLint scaled at 1 µM: < 6.2 mL/min/kg

## CS(=O)(=O)NC(=O)c1cc(C2CC2)c(OCC2CCN(C(=O)c3cc(Cl)cc(Cl)c3)CC2)cc1F
[1]
  logD: 0.9
[2]
  IC50: 6.4 µM
Homo sapiens
  Ratio IC50: 183
[3]
  CLint scaled at 1 µM: 8.6 mL/min/kg
[4]
  CLint scaled at 1 µM: 7.5 mL/min/kg

## CS(=O)(=O)NC(=O)c1cc(C2CC2)c(OCC2CCN(C(c3ccccc3)c3ccccc3)CC2)cc1F
[1]
  logD: 2.7
[2]
  IC50: 0.59 µM
Homo sapiens
  Ratio IC50: 8.9
[3]
  CLint scaled at 1 µM: 5.5 mL/min/kg
[4]
  CLint scaled at 1 µM: < 6.2 mL/min/kg

## CS(=O)(=O)NC(=O)c1cc(C2CC2)c(OCC2CN(Cc3ccccc3)C2)cc1F
[1]
  logD: 0.1
[2]
  IC50: > 30 µM

## O=C(NS(=O)(=O)N1CCCC1)c1cc(C2CC2)c(OCC23CC4CC(CC(C4)C2)C3)cc1F
[1]
  logD: 4.4
[2]
  IC50: 1.5 µM
Homo sapiens
  Ratio IC50: 9
[3]
  CLint scaled at 1 µM: 8.5 mL/min/kg
[4]
  CLint scaled at 1 µM: < 6.2 mL/min/kg

## CC(C)(c1cc(Cl)cc(Cl)c1)N1CCC(COc2cc(F)c(C(=O)NS(C)(=O)=O)cc2C2CC2)CC1
[1]
  logD: 3.9
[2]
  IC50: 3.9 µM
Homo sapiens
  Ratio IC50: 144
[3]
  CLint scaled at 1 µM: 7.8 mL/min/kg
[4]
  CLint scaled at 1 µM: < 6.2 mL/min/kg

## CS(=O)(=O)NC(=O)c1cc(C2CC2)c(OCC23CC4CC(CC(C4)C2)C3)cc1F
[1]
  logD: 3.3
[2]
  IC50: 1.1 µM
[3]
  CLint scaled at 1 µM: 19 mL/min/kg
[4]
  CLint scaled at 1 µM: 17 mL/min/kg

## O=C(NS(=O)(=O)N1CCOCC1)c1cc(C2CC2)c(OCC23CC4CC(CC(C4)C2)C3)cc1F
[1]
  logD: 3.8
[2]
  IC50: 0.11 µM
Homo sapiens
  Ratio IC50: 1
[3]
  CLint scaled at 1 µM: 11 mL/min/kg
[4]
  CLint scaled at 1 µM: 12 mL/min/kg

## O=C(NS(=O)(=O)N1CCC1)c1cc(C2CC2)c(OCC23CC4CC(CC(C4)C2)C3)cc1F
[6]
  Fu: 0.005%
[7]
  Vdss: 0.38 L/kg
Cytochrome P450 3A4
  IC50: > 10 µM
[8]
  Vdss: 0.3 L/kg
[9]
  IC50: 0.0189 µM
[10]
  Vdss: 0.17 L/kg
[11]
  Fu: 0.025%
[1]
  logD: 3.1
[12]
  bioavailability: 50%
[2]
  IC50: 0.87 µM
Mus musculus
  EC50: 1.7 µM
  fEC50: 0.42 nM
[14]
  half-life: 0.95 h
[15]
  solubility kinetic: 5.3 µM (≈ 2.45 µg/mL)
[16]
  Fu: 0.025%
[23]
  IC50: 0.0085 µM
[17]
  bioavailability: 30%
[18]
  Papp A→B: 4.7 ×10⁻⁶ cm/s
[19]
  Fu: 0.013%
[3]
  CLint scaled at 1 µM: 10 mL/min/kg
[20]
  half-life: 1.6 h
[21]
  half-life: 5.5 h
[22]
  bioavailability: 34%
[4]
  CLint scaled at 1 µM: 11 mL/min/kg

## O=C(NS(=O)(=O)C1COC1)c1cc(C2CC2)c(OCC23CC4CC(CC(C4)C2)C3)cc1F
[1]
  logD: 3.4
[2]
  IC50: 0.75 µM
Homo sapiens
  Ratio IC50: 20
[3]
  CLint scaled at 1 µM: 16 mL/min/kg
[4]
  CLint scaled at 1 µM: 6.7 mL/min/kg

## CS(=O)(=O)NC(=O)c1cc(C2CC2)c(OCC2CCN(Cc3ccc(OC(F)(F)F)cc3)CC2)cc1F
[1]
  logD: 1.2
[2]
  IC50: 17 µM
Homo sapiens
  Ratio IC50: 531
[3]
  CLint scaled at 1 µM: 9.9 mL/min/kg
